According to PubChem BioAssay (NCI):
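All cell lines were grown in 96-well plates and treated with compound for 48 hours. Here, GI50 denotes the concentration required for 50% inhibition of growth. TGI denotes the concentration required for complete inhibition of growth.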

Key:
Test in all cases: NCI anticancer screen, dose series, 48 h
NCI-H522 lung = tested on: NCI-H522 lung
OVCAR-4 ovarian = tested on: OVCAR-4 ovarian
MOLT-4 leukemia = tested on: MOLT-4 leukemia
OVCAR-8 ovarian = tested on: OVCAR-8 ovarian
A498 renal = tested on: A498 renal
HCC-2998 colon = tested on: HCC-2998 colon
NCI/ADR-RES ovarian = tested on: NCI/ADR-RES ovarian
TK-10 renal = tested on: TK-10 renal
HOP-62 NSCLC = tested on: HOP-62 NSCLC
UACC-62 melanoma = tested on: UACC-62 melanoma
ACHN renal = tested on: ACHN renal
MALME-3M melanoma = tested on: MALME-3M melanoma
SF-295 CNS = tested on: SF-295 CNS
NCI-H226 lung = tested on: NCI-H226 lung
M19-MEL melanoma = tested on: M19-MEL melanoma
KM20L2 colon = tested on: KM20L2 colon

Row | Structure (SMILES) | TGI (NCI-H522 lung) [µM] | TGI (OVCAR-4 ovarian) [µM] | TGI (MOLT-4 leukemia) [µM] | TGI (OVCAR-8 ovarian) [µM] | TGI (A498 renal) [µM] | TGI (HCC-2998 colon) [µM] | TGI (NCI/ADR-RES ovarian) [µM] | TGI (TK-10 renal) [µM] | TGI (HOP-62 NSCLC) [µM] | TGI (UACC-62 melanoma) [µM] | TGI (ACHN renal) [µM] | TGI (MALME-3M melanoma) [µM] | TGI (SF-295 CNS) [µM] | TGI (NCI-H226 lung) [µM] | TGI (M19-MEL melanoma) [µM] | TGI (KM20L2 colon) [µM] | GI50 (MOLT-4 leukemia) [µM] | GI50 (NCI/ADR-RES ovarian) [µM] | GI50 (HOP-62 NSCLC) [µM] | GI50 (ACHN renal) [µM]
1 | CC(C)(C)C(=O)C(C(c1ccccc1)N1CCOCC1)N1CCOCC1 (stereo not drawn) | > 100 | > 100 | > 100 | > 100 | > 100 | > 100 | > 100 | > 100 | > 100 | > 100 | > 100 | > 100 | > 100 |  |  |  |  |  |  | 
2 | CC(=O)Oc1ccccc1C(=O)O | > 100 | > 100 | > 100 | > 100 |  |  | > 100 | > 100 | > 100 | > 100 | > 100 | > 100 | > 100 | > 100 |  |  |  |  |  | 
3 | Cn1c(-c2ccc(/C=N\N3CCN(/N=C/c4ccc(-c5c[n+]6ccsc6n5C)cc4)CC3)cc2)c[n+]2ccsc12 | > 100 | > 100 | > 100 | > 100 | 82.3 |  | > 100 | > 100 |  | 95.7 | > 100 |  | > 100 | > 100 |  |  |  |  |  | 
4 | Cc1ccc(-c2csc(=Nc3c(C)n(C)n(-c4ccccc4)c3=O)n2CCO)cc1 |  | > 100 | > 100 | > 100 | > 100 | > 100 | > 100 | > 100 | > 100 | > 100 | > 100 |  | > 100 | > 100 |  |  |  |  |  | 
5 | CCO[C@]12C[C@H](OC)[C@@]3(O)CC(C1[C@H]3O)C13C4C2[C@H](OC)C1[C@](COC)(CN4CC)[C@H](O)C[C@@H]3OC (stereo partly drawn) |  | > 100 | > 100 | > 100 |  | > 100 |  | > 100 | > 100 | > 100 | > 100 |  |  | > 100 | > 100 | > 100 |  |  |  | 
6 | COc1cc2c3c(n(CCCNCCCNCCCn4c5c(c6ccccc6c4=O)C(=O)c4ccccc4-5)c(=O)c2cc1OC)-c1cc2c(cc1C3=O)OCO2 |  |  | > 100 |  |  |  | > 67.1 |  | 0.695 |  | < 0.0219 |  |  |  |  |  | < 0.01 | > 40.5 | < 0.0434 | < 0.01
7 | Clc1c(Cl)c2c(Cl)c(Cl)c1C[P+](c1ccccc1)(c1ccccc1)CC[P+](c1ccccc1)(c1ccccc1)Cc1c(Cl)c(Cl)c(c(Cl)c1Cl)C[P+](c1ccccc1)(c1ccccc1)CC[P+](c1ccccc1)(c1ccccc1)C2 | 9.26 | 8.59 | 10.5 | 19 | 24.4 | 14.5 |  | 9.41 | 18.5 |  | 17.6 | 7 | 12.6 | 20.2 | 9.91 | 12.9 |  |  |  | 
8 | CC(C)[C@](O)(C(=O)OCC1CC[N+]2([O-])CC[C@@H](O)C12)[C@H](C)O (stereo partly drawn) | > 375 | > 375 | > 375 | > 375 | > 59.4 | > 375 | > 375 |  | > 375 | > 375 |  | > 256 | > 375 | > 375 | > 375 | > 375 |  |  |  | 
9 | CCCCN1C(=O)NC(Cc2ccccc2)C1=O (stereo not drawn) | > 100 |  |  | > 100 |  | > 100 |  | > 100 | > 100 |  | > 100 | > 100 | > 100 | > 100 | > 100 | > 100 |  |  |  | 
10 | CC#C[I+]c1ccccc1 | 13.1 | 46.3 | 42.2 | 31.2 | > 100 | 56.6 |  | 30.4 | 96.6 | 57.6 | 32 | 38.2 | > 100 | > 100 | 45 | 36.1 |  |  |  | 
11 | OCCN(CCO)c1ccc2c(c1)Cc1ccccc1-2 |  | > 100 | > 100 | > 100 | 80.5 | > 100 | > 100 | 55 | > 100 | > 100 | > 100 | > 100 | > 100 | > 100 |  |  |  |  |  | 
12 | CCCCCCCCCCCCCCCCOCC(COP(=O)([O-])OCC[N+](C)(C)C)OCCCCCCCCCCCCCCCC (stereo not drawn) | > 100 | > 100 | > 100 | > 100 | > 100 | > 100 | > 100 |  | > 100 | > 100 |  | > 100 | > 100 | > 100 | > 100 | > 100 |  |  |  | 
